Measurements taken from patent publication US20240181005A1, “COMPOSITIONS, SYSTEMS, AND METHODS FOR GENERATING GENE-EDITED CELLS” (CellScript, LLC, priority 2020, published 2024).

B1: GSE CS-56 mRNA: mRNA encoding a human TP53 genetic suppressor element, a dominant negative deletion mutant of TP53 (nucleic acid)
chain: GGGUAAUACAAGCUUGCUUGUUCUUUUUGCAGAAGCUCAGAAUAAACGCUCAACUUUGGCAGCCACCAUGGAUUGUCCUGGGAGAGACCGGCGCACAGAGGAAGAGAAUCUCCGCAAGAAAGGGGAGCCUCACCACGAGCUGCCCCCAGGGAGCACUAAGCGAGCACUGCCCAACAACACCAGCUCCUCUCCCCAGCCAAAGAAGAAACCACUGGAUGGAGAAUAUUUCACCCUUCAGAUCCGUGGGCGUGAGCGCUUCGAGAUGUUCCGAGAGCUGAAUGAGGCCUUGGAACUCAAGGAUGCCCAGGCUGGGAAGGAGCCAGGGGGGAGCAGGGCUCACUCCAGCCACCUGAAGUAGUGAUAUCACUAGUGACUGACUAGGAUCUGGUUACCACUAAACCAGCCUCAAGAACACCCGAAUGGAGUCUCUAAGCUACAUAAUACCAACUUACACUUUACAAAAUGUUGUCCCCCAAAAUGUAGCCAUUCGUAUCUGCUCCUAAUAAAAAGAAAGUUUCUUCACAUUCUGCUAGCUCUAG
modifications: pseudouridine; (1)..(539) U=Pseudouridine

What was measured:
[1] = system: NK cells (CD3-CD56^+) differentiated from XMEN CD34^+ HSPCs; experiment: In vitro NK cell differentiation from gene-edited CD34+ cells: NKG2D expression and TI; type: cell-based, human
Source text: (B) Dot plot showing the gating for NK cells (CD3-CD56+) and NKG2D expression after 35 days of in vitro NK cell differentiation from CD34+ cells; histogram on the right showing the percentage of CD34-derived NK cells in each condition (n=2-8 independent experiments). (C) NKG2D expression and (D) targeted integration in NK cells at day 35 of in vitro differentiation (n=2-8 independent experiments). (E) Cytotoxic activity of CD34+-differentiated NK cells against K562 cells at an E:T ratio of 2:1 (n=1-7 independent experiments). For all the graphs, data are shown as mean±SD; *p<0.05, *p<0.01, ***p<0.001, ****p<0.0001. (F) Correlation between the NKG2D expression (%) and the killing activity (%) in NK cells at day 35 was calculated using Spearman's correlation coefficient and two-tailed p-value (n=21 samples).
CD34^+ HSPCs were differentiated into NK cells in vitro using a protocol adapted from (47). 200,000 CD34^+ cells were resuspended in IMDM supplemented with 20% FBS and 50 μM BME containing 5 ng/mL rhIL-3 (first week only), 10 ng/mL IL-15, 20 ng/mL IL-7, 20 ng/mL SCF, 10 ng/mL Flt3L and 100 U/mL IL2 for 35 days. […]
(§1) Targeted insertion (TI) of MAGT1 cDNA was quantified by digital droplet PCR (ddPCR) using one primer located upstream of the LHA (5′-[…]−3′, SEQ ID NO:42) the second primer (5′-[…]-3′, SEQ ID NO:43) inside the cDNA and a probe (5′-[…]-3′, SEQ ID NO:44).

HSPCs [2] = conditions: HSPCs from patients with CGD, SCD, SCID-X1; cited from earlier work
[3] = system: NSGS immunodeficient mice; experiment: Transplantation of gene-edited XMEN CD34+ HSPCs into NSGS mice; type: in vivo, mouse; conditions: for post-transplant TI: ddPCR, human CD45+ cells from bone marrow, week 16
Source text: (A) Human engraftment measured by the presence of human CD45^+ cells by flow cytometry at week 16 in the peripheral blood, bone marrow, spleen and thymus of NSGS mice transplanted with HD (n=5 mice), untreated (n=12) or gene-edited XMEN CD34^+ HSCs (n=1 (−i53), n=8 (+i53), n=18 (+i53^+ GSE-CS56)). The dotted line indicates the threshold for engraftment at 0.2% hCD45^+ cells in the bone marrow. (B) Percentage of human engraftment (hCD45^+) measured after injection of XMEN HSPCs gene edited with increasing Multiplicity of Infection (MOIs) of AAV, in presence of i53 alone or i53 and GSE-CS56. (C) Immunophenotypic analysis of bone marrow at 16 weeks post-transplant by flow cytometry showing the percentages of CD34^+ cells, myeloid (CD33^+), lymphoid B (CD19^+) and T (CD3^+) after gating on the hCD45^+ population. (D and E) Restoration of NKG2D expression in NK cells from the spleen (D) and CD8^+ T cells from the peripheral blood, spleen and thymus (E) at week 16 post-transplant. For all the graphs, data are shown as mean±SD. (F and G) Targeted insertion quantified by ddPCR in human CD45^+ cells isolated from the bone marrow after gene editing with i53 (orange bar) or with i53 and GSE-CS56 (green bar) (F); or in the lymphoid T (CD3), myeloid (CD33/CD14) and lymphoid B (CD19) cells sorted from the spleen (G).
The use of triple transgenic immunodeficient mice NOD.Cg-Prkd^scid Il2rg^tm1Wjl Tg (NSG-SGM3 or NSGS) expressing human IL3, GM-CSF and SCF cytokines (30) (Stock No: 013062; The Jackson Laboratory) for transplantation studies was approved by NIAID Institutional Animal Care and Use Committee under the animal use protocol LCIM-1E. The conduct of these studies conforms to AAALAC International guidelines and all US federal regulations required for protection of research animals. Newborn mice (0-4 days old) were irradiated at 100 cGy and immediately intrahepatically injected (courtesy of Mara Pavel-Dinu) with 1-1.5×10^6 viable CD34^+ cells per mouse. Peripheral blood from tail vein was analyzed at weeks 12 and 16 after transplantation. At 16 weeks, mice were sacrificed, and bone marrow, spleen and thymus were harvested for analysis of engraftment, sorting or gDNA extraction as indicated. […]
as §1

HSPCs [4] = experiment: Innate immune, transcriptional and toxicity response of HSPCs to the mRNAs during gene editing
XMEN CD34^+ HSPCs [5] = experiment: Targeted insertion (TI) of MAGT1 cDNA by ddPCR in gene-edited CD34+ HSPCs; type: cell-based, human; conditions: ddPCR 48-72 h post-EP, input pre-transplant
Source text: (A) Location of the 10 candidate sgRNAs targeting MAGT1 gene transcription start site (TSS). Each sgRNA (sg) is represented as a 20-bp sequence (light grey or green) associated with the 3-bp PAM sequence (darker color). (B) Evaluation of the percentage of cutting activity by TIDE assay after gDNA extraction from untreated versus Cas9/sgRNA treated HD CD34+ cells at 2-5 days post electroporation, sequencing of Exon 1 and comparison of the sequences using TIDE software (n=1-5 independent experiments). (C) Design of the rAAV6-MAGT1 donor. (D) Molecular analysis showing the percentage of targeted insertion in gene-edited XMEN CD34+ cells using gene editing enhancers as described. gDNA was extracted at 48 h-72 h post-EP and insertion of the MAGT1 cDNA donor was quantified by ddPCR (n=3-11 independent experiments). (E) Viability determined by blue trypan exclusion in untreated Naive and AAV-MAGT1-treated XMEN HSPCs at day 2 post-EP (n=1-7 independent experiments). (F) Representative analysis of the phenotype of CD34+ cells at day 2 post-EP. […]
as §1

XMEN CD34^+ HSPCs [6] = experiment: Viability of gene-edited CD34+ HSPCs by trypan blue exclusion; type: cell-based, human; conditions: day 2 post-EP
Source text: (A) Location of the 10 candidate sgRNAs targeting MAGT1 gene transcription start site (TSS). Each sgRNA (sg) is represented as a 20-bp sequence (light grey or green) associated with the 3-bp PAM sequence (darker color). (B) Evaluation of the percentage of cutting activity by TIDE assay after gDNA extraction from untreated versus Cas9/sgRNA treated HD CD34+ cells at 2-5 days post electroporation, sequencing of Exon 1 and comparison of the sequences using TIDE software (n=1-5 independent experiments). (C) Design of the rAAV6-MAGT1 donor. (D) Molecular analysis showing the percentage of targeted insertion in gene-edited XMEN CD34+ cells using gene editing enhancers as described. gDNA was extracted at 48 h-72 h post-EP and insertion of the MAGT1 cDNA donor was quantified by ddPCR (n=3-11 independent experiments). (E) Viability determined by blue trypan exclusion in untreated Naive and AAV-MAGT1-treated XMEN HSPCs at day 2 post-EP (n=1-7 independent experiments). (F) Representative analysis of the phenotype of CD34+ cells at day 2 post-EP. For all the graphs, data are shown as mean±standard deviation (SD); ANOVA one-way test and Tukey's post hoc multiple comparisons test, *p<0.05, *p<0.01, ***p<0.001, ****p<0.0001.
Cryopreserved CD34^+ HSPCs were thawed (day 0) and cultured in StemSpan SFEM II medium (STEMCELL™ Technologies) supplemented with 100 ng/mL stem cell factor (SCF), Flt3 ligand, thrombopoietin (Peprotech), 0.75 μM of StemRegenin-1 (STEMCELL™ Technologies) and 35 nM of UM171 (STEMCELL™ Technologies) for 2 days (37). […] At 48 h post-EP, the cells were harvested and counted by hemocytometer with trypan blue to determine viability before their use for molecular analysis, phenotypic analysis by flow cytometry, CFU assay, T or NK cell differentiation or cryopreservation for transplant studies.

53BP1 = target: T1, 53BP1 (Homo sapiens, UniProt Q12888); conditions: blocking 53BP1 tudor domain binding to H4K20me2; cited from earlier work
T1 construct: endogenous in cells

CD34^+ HSPCs = experiment: CFSE proliferation assay; type: cell-based, human; conditions: CFSE stain day 1 post EP, flow cytometry day 6
Source text: (A) Optimization of cutting activity (% indels) of various forms of Cas9 mRNA and at increasing concentration. Commercial Cas9 mRNA (MaxCyte, Mx) is used as control. (B) Evaluation of the glycerol concentration in the EP mix on viability and cutting activity at day 2 post EP. (C) Representative dot plots showing the immunophenotype analysis of HSPCs by flow cytometry at day 2 post EP. (D) Hematopoietic potential evaluated by the CFU assay at day 2 post-EP; Number of CFU colonies were counted after 14 days. (E) Measure of the proliferation index after staining HD HSPCs at day 1 post EP with CFSE dye and analysis of the proliferation by flow cytometry at day 6 post EP.
The following day after EP, CD34^+ cells were stained with CellTrace™ CFSE kit per manufacturer's instructions (ThermoFisher Scientific) and analyzed by flow cytometry 5 days later. Determination of the proliferation index was done using FlowJo software.

T1 sequence (Q12888 whole entry, the tested form may be a part): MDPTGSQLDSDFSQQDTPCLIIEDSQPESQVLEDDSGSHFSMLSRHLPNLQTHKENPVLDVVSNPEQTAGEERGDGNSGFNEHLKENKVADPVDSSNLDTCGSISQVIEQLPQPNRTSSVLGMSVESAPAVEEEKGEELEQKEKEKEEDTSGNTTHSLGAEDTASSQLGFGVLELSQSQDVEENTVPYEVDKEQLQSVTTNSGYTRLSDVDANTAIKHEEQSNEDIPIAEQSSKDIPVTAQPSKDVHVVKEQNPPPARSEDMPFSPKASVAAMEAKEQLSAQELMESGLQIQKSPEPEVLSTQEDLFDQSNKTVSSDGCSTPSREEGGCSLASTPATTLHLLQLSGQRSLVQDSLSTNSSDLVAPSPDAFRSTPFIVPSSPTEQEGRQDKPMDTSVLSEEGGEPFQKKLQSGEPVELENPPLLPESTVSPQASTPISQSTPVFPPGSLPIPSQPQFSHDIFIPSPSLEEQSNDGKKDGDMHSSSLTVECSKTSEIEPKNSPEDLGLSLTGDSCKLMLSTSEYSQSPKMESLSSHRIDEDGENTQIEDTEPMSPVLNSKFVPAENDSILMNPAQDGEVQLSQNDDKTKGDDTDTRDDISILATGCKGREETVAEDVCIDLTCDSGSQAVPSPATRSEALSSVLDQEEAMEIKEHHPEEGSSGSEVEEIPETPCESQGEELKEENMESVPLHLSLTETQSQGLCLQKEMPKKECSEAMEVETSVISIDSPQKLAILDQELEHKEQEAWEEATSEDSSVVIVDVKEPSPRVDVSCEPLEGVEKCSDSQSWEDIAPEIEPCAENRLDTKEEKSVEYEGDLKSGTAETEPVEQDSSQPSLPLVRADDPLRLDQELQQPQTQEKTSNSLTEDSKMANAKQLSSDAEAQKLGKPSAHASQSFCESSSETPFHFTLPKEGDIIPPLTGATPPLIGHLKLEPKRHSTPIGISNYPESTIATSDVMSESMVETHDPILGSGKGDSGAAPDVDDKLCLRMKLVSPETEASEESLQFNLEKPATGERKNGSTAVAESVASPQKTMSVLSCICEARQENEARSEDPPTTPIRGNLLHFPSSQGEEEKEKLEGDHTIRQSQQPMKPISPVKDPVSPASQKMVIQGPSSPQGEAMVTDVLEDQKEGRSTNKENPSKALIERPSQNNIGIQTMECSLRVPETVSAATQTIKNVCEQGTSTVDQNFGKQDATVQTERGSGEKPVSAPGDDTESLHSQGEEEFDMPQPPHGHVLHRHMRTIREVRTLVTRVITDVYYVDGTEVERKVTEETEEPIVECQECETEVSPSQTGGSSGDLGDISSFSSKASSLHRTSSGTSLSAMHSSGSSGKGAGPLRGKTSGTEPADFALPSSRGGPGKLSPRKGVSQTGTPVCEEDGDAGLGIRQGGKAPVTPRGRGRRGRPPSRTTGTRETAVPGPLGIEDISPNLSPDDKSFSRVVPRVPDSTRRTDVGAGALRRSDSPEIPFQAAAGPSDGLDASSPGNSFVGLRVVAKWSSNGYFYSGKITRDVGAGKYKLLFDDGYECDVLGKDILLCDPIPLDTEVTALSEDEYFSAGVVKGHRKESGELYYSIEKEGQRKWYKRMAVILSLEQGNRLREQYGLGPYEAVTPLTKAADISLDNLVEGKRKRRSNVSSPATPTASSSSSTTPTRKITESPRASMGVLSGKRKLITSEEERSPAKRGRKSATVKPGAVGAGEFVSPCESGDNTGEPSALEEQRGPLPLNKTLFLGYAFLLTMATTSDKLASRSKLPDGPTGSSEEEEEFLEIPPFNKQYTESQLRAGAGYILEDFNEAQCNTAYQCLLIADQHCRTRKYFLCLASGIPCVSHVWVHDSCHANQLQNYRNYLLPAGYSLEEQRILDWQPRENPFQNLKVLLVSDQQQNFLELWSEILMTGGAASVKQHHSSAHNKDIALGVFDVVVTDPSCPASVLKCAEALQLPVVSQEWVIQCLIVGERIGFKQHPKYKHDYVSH

Row | Molecule | NKG2D expression in in vitro differentiated NK cells ([1]; day 35 of culture) [%] | molecular TI rates in NK cells ([1]; day 35 of in vitro differentiation, ddPCR) [%] | levels of HDR-mediated TI with AAV donors or gene correction with ssODN donors (HSPCs [2]) | post-transplant TI [3] | engraftment of human CD45+ cells in the BM ([3]; week 16, NSGS mice, bone marrow) [%] | upregulation of interferon or other cytokines or cellular stress genes, transcriptional repression, toxicity or loss of viability (HSPCs [4]) | AAV-MAGT1 TI rates (targeted insertion) (XMEN CD34^+ HSPCs [5]) [%] | viability of GE CD34+ HSPCs (XMEN CD34^+ HSPCs [6]) | increase of repair by HDR (53BP1) | proliferative capacity (CD34^+ HSPCs) | percentages of NKG2D-expressing CD8+ T cells ([3]; week 16 post-transplant, PB, spleen, thymus) | viability of GE CD34+ HSPCs (XMEN CD34^+ HSPCs [6]; listed as GSE-CS56 mRNA)
1 | i53 mRNA: pseudouridine-modified mRNA encoding i53, an inhibitor of 53BP1 (ubiquitin variant, SEQ ID NO:6) | 26 | 34 | above 60% | 54.5±18.3% | 11.03 | not observed any significant upregulation | 50.0±18.2 | decreased after gene editing, independently of i53 | – | – | – | –
2 | i53 protein: ubiquitin variant (SEQ ID NO:2) of Canny et al. that binds the tandem tudor domain of 53BP1 | – | – | – | – | – | – | – | – | about 2 fold | – | – | –
3 | B1 | – | – | – | slightly improved | – | not observed any significant upregulation | 62.3±18 | significantly increased | – | better preserved | slightly improved | rescue the cell viability
